Reference: PMC7181660, “A novel specific PERK activator reduces toxicity and extends survival in Huntington's disease models” (Scientific Reports, 2020)
Read-outs that look alike come from different tables or passages of the source.

Assays:
Assay in all cases: biochemical
Type in all cases: biochemical
panel of 391 kinases [1] = target: panel of 391 kinases (Homo sapiens, UniProt Q8TD19); details: NEK9, MK-28 1 µM, ATP 1 µM
panel of 391 kinases [2] = target: panel of 391 kinases (Homo sapiens, UniProt Q16288); details: TRKC, MK-28 1 µM, ATP 1 µM
panel of 391 kinases [3] = target: panel of 391 kinases (Homo sapiens, UniProt Q9Y6M4); details: CK1g3, MK-28 1 µM, ATP 1 µM
panel of 391 kinases [4] = target: panel of 391 kinases (Homo sapiens, UniProt Q9H792); details: PEAK1, MK-28 1 µM, ATP 1 µM
panel of 391 kinases [5] = target: panel of 391 kinases (Homo sapiens, UniProt P45983); details: JNK1, MK-28 1 µM, ATP 1 µM
panel of 391 kinases [6] = target: panel of 391 kinases (Homo sapiens, UniProt P17948); details: FLT1/VEGFR1, MK-28 1 µM, ATP 1 µM
panel of 391 kinases [7] = target: panel of 391 kinases (Homo sapiens, UniProt P78527); details: kinase DNA-PK, compound at 1 µM, single dose in duplicates, 1 µM ATP
panel of 391 kinases [8] = target: panel of 391 kinases (Homo sapiens, UniProt P51813); details: BMX/ETK, MK-28 1 µM, ATP 1 µM
panel of 391 kinases [9] = target: panel of 391 kinases (Homo sapiens, UniProt Q9H093); details: SNARK/NUAK2, MK-28 1 µM, ATP 1 µM
panel of 391 kinases [10] = target: panel of 391 kinases (Homo sapiens, UniProt P54762); details: EPHB1, MK-28 1 µM, ATP 1 µM
panel of 391 kinases [11] = target: panel of 391 kinases (Homo sapiens, UniProt Q05655); details: PKCd, MK-28 1 µM, ATP 1 µM
panel of 391 kinases [12] = target: panel of 391 kinases (Homo sapiens, UniProt P22694); details: PKAcb, MK-28 1 µM, ATP 1 µM
panel of 391 kinases [13] = target: panel of 391 kinases (Homo sapiens, UniProt Q32MK0); details: MYLK3, MK-28 1 µM, ATP 1 µM
panel of 391 kinases [14] = target: panel of 391 kinases (Homo sapiens, UniProt Q9UBE8); details: NLK, MK-28 1 µM, ATP 1 µM
panel of 391 kinases [15] = target: panel of 391 kinases (Homo sapiens, UniProt Q9UHD2); details: TBK1, MK-28 1 µM, ATP 1 µM
panel of 391 kinases [16] = target: panel of 391 kinases (Homo sapiens, UniProt P31749); details: AKT1, MK-28 1 µM, ATP 1 µM
panel of 391 kinases [17] = target: panel of 391 kinases (Homo sapiens, UniProt Q8TDX7); details: NEK7, MK-28 1 µM, ATP 1 µM
panel of 391 kinases [18] = target: panel of 391 kinases (Homo sapiens, UniProt O43293); details: kinase ZIPK/DAPK3, compound at 1 µM, single dose in duplicates, 1 µM ATP
panel of 391 kinases [19] = target: panel of 391 kinases (Homo sapiens, UniProt Q04771); details: ALK2/ACVR1, MK-28 1 µM, ATP 1 µM
panel of 391 kinases [20] = target: panel of 391 kinases (Homo sapiens, UniProt P06493); details: MK-28 1 µM, ATP 1 µM; for remaining activity at 1 µM: read-out: % Enzyme Activity (relative to DMSO controls)
panel of 391 kinases [21] = target: panel of 391 kinases (Homo sapiens, UniProt P30291); details: WEE1, MK-28 1 µM, ATP 1 µM
panel of 391 kinases [22] = target: panel of 391 kinases (Homo sapiens, UniProt O75460); details: ERN1/IRE1, MK-28 1 µM, ATP 1 µM
panel of 391 kinases [23] = target: panel of 391 kinases (Homo sapiens, UniProt P43403); details: ZAP70, MK-28 1 µM, ATP 1 µM
panel of 391 kinases [24] = target: panel of 391 kinases (Homo sapiens, UniProt Q9H2X6); details: HIPK2, MK-28 1 µM, ATP 1 µM
panel of 391 kinases [25] = target: panel of 391 kinases (Homo sapiens, UniProt P42680); details: TEC, MK-28 1 µM, ATP 1 µM
panel of 391 kinases [26] = target: panel of 391 kinases (Homo sapiens, UniProt P53671); details: LIMK2, MK-28 1 µM, ATP 1 µM
[27] = read-out: % Enzyme Activity (relative to DMSO controls)

In the case of `CN(/N=C\c1ccc(O)c(O)c1)c1nc(-c2ccccc2)cc(-c2ccccc2)n1` [MK-28], the “% Enzyme Activity (relative to DMSO controls)” value (panel of 391 kinases [1]) is reported as 96.03%, the remaining activity at 1 µM (panel of 391 kinases [1]; [27]) is reported as 101% and the “% Enzyme Activity (relative to DMSO controls)” value (panel of 391 kinases [2]) is reported as 91.11%. For the same compound, the remaining activity at 1 µM (panel of 391 kinases [2]; [27]) was 92.9%, the “% Enzyme Activity (relative to DMSO controls)” value (panel of 391 kinases [3]) was 76.84% and the remaining activity at 1 µM (panel of 391 kinases [3]; [27]) was 80.6%. The “% Enzyme Activity (relative to DMSO controls)” value (panel of 391 kinases [4]) was 87.56%, the remaining activity at 1 µM (panel of 391 kinases [4]; [27]) was 88.6% and the “% Enzyme Activity (relative to DMSO controls)” value (panel of 391 kinases [5]) was 98.63%. The remaining activity at 1 µM (panel of 391 kinases [5]; [27]) was 99.6%, the “% Enzyme Activity (relative to DMSO controls)” value (panel of 391 kinases [6]) was 84.43% and the remaining activity at 1 µM (panel of 391 kinases [6]; [27]) was 84.8%. For the same compound, the “% Enzyme Activity (relative to DMSO controls)” value (panel of 391 kinases [7]) was 102.10%, the remaining activity at 1 µM (panel of 391 kinases [7]; [27]) was 103% and the “% Enzyme Activity (relative to DMSO controls)” value (panel of 391 kinases [8]) was 100.53%. The remaining activity at 1 µM (panel of 391 kinases [8]; [27]) was 102%, the “% Enzyme Activity (relative to DMSO controls)” value (panel of 391 kinases [9]) was 94.11% and the remaining activity at 1 µM (panel of 391 kinases [9]; [27]) was 95.6%. The “% Enzyme Activity (relative to DMSO controls)” value (panel of 391 kinases [10]) was 96.23%, the remaining activity at 1 µM (panel of 391 kinases [10]; [27]) was 98.1% and the “% Enzyme Activity (relative to DMSO controls)” value (panel of 391 kinases [11]) was 97.74%. The remaining activity at 1 µM (panel of 391 kinases [11]; [27]) was 98.5%, the “% Enzyme Activity (relative to DMSO controls)” value (panel of 391 kinases [12]) was 95.23% and the remaining activity at 1 µM (panel of 391 kinases [12]; [27]) was 99.2%. The “% Enzyme Activity (relative to DMSO controls)” value (panel of 391 kinases [13]) was 104.33%, the remaining activity at 1 µM (panel of 391 kinases [13]; [27]) was 106% and the “% Enzyme Activity (relative to DMSO controls)” value (panel of 391 kinases [14]) was 99.19%. The remaining activity at 1 µM (panel of 391 kinases [14]; [27]) was 105%, the “% Enzyme Activity (relative to DMSO controls)” value (panel of 391 kinases [15]) was 116.87% and the remaining activity at 1 µM (panel of 391 kinases [15]; [27]) was 126%. The “% Enzyme Activity (relative to DMSO controls)” value (panel of 391 kinases [16]) was 95.66%, the remaining activity at 1 µM (panel of 391 kinases [16]; [27]) was 96.7% and the “% Enzyme Activity (relative to DMSO controls)” value (panel of 391 kinases [17]) was 97.32%. For the same compound, the remaining activity at 1 µM (panel of 391 kinases [17]; [27]) was 98.3%, the “% Enzyme Activity (relative to DMSO controls)” value (panel of 391 kinases [18]) was 79.41% and the remaining activity at 1 µM (panel of 391 kinases [18]; [27]) was 79.9%. For the same compound, the “% Enzyme Activity (relative to DMSO controls)” value (panel of 391 kinases [19]) was 102.33%, the remaining activity at 1 µM (panel of 391 kinases [19]; [27]) was 108% and the “% Enzyme Activity (relative to DMSO controls)” value (panel of 391 kinases [20]; CDK1/cyclin A) was 104.81%. The remaining activity at 1 µM (panel of 391 kinases [20]; CDK1/cyclin A) was 105%, the “% Enzyme Activity (relative to DMSO controls)” value (panel of 391 kinases [20]; CDK1/cyclin B) was 94.54% and the remaining activity at 1 µM (panel of 391 kinases [20]; CDK1/cyclin B) was 95%. The “% Enzyme Activity (relative to DMSO controls)” value (panel of 391 kinases [20]; CDK1/cyclin E) was 97.74%, the remaining activity at 1 µM (panel of 391 kinases [20]; CDK1/cyclin E) was 97.8% and the “% Enzyme Activity (relative to DMSO controls)” value (panel of 391 kinases [21]) was 112.80%. The remaining activity at 1 µM (panel of 391 kinases [21]; [27]) was 114%, the “% Enzyme Activity (relative to DMSO controls)” value (panel of 391 kinases [22]) was 104.22% and the remaining activity at 1 µM (panel of 391 kinases [22]; [27]) was 105%. For the same compound, the “% Enzyme Activity (relative to DMSO controls)” value (panel of 391 kinases [23]) was 95.37%, the remaining activity at 1 µM (panel of 391 kinases [23]; [27]) was 97.8% and the “% Enzyme Activity (relative to DMSO controls)” value (panel of 391 kinases [24]) was 122.10%. For the same compound, the remaining activity at 1 µM (panel of 391 kinases [24]; [27]) was 124%, the “% Enzyme Activity (relative to DMSO controls)” value (panel of 391 kinases [25]) was 100.49% and the remaining activity at 1 µM (panel of 391 kinases [25]; [27]) was 101%. The “% Enzyme Activity (relative to DMSO controls)” value (panel of 391 kinases [26]) was 94.92% and the remaining activity at 1 µM (panel of 391 kinases [26]; [27]) was 95.4%.
